Assay results from US5264429A, “2-spirocyclopropyl cephalosporin sulfone derivatives” (SynPhar Laboratories, Inc., priority 1991, dated 1993).
Where two headings read alike, the source gives them in different places.

Columns and labels:
thrombin = target: T1, thrombin (Homo sapiens, UniProt P00734); experiment: Inhibition of thrombin (THR); assay type: biochemical; settings: pH 8.6, 10 minute preincubation, 22° C.
T1 construct: from tissue; host or cells: human plasma
Description: (§1) HLE, CTG, PPE and CTD were tested at 30° C. and the others were
(§2) TRY, trypsin; THR, thrombin; PTH, plasmin; CTC, cathepsin C; ATM,
Enzyme: Purified thrombin from human plasma
Substrate: Tosyl-glycyl-L-prolyl-L-arginine-p-NA acetate
Reaction mixture: 50 mM Tricine-NaOH buffer (pH 8.6), 500 mM NaCl, 0.1% Polyethyleneglycol 8000, 10% DMSO, 0.5 mM Substrate.
(§3) Except for Cathepsin D, the enzyme activities were determined by monitoring the increase in absorbance at 410 nm caused by the hydrolysis of chromogenic substrates. The activity of Cathepsin D was determined by monitoring the absorbance of 5% trichloroacetic acid-soluble material at 280 nm.
(§4) Inhibition of enzymes by the compounds described were determined after a 10 minute preincubation with enzymes in reaction mixtures minus substrate. Reactions were initiated by the addition of substrates. The concentration used for assays were porcine pancreatic elastase at 240 nM and human Cathepsin G at 50 nM. Cathepsin D was used at the concentration that produced approximately 0.15 O.D. increase per 20 min at 280 nm under the standard conditions. All other proteases were assayed at the concentrations that produced approximately 0.1 O.D. change per minute at 410 nm under the standard conditions.

plasmin = target: T2, plasmin (Homo sapiens, UniProt P00747); experiment: Inhibition of plasmin (PTH); assay type: biochemical; settings: pH 8.9, 10 minute preincubation, 22° C.
T2 construct: from tissue; host or cells: human plasma
Description: as §1, §2
Enzyme: Purified plasmin from human plasma Substrate: Tosyl-glyclyl-L-prolyl-L-lysine-pNA acetate
Reaction mixture: 50 mM Tris-HCl buffer (pH 8.9), 500 mM NaCl, 5% DMSO, 0.5 mM Substrate.
as §3, §4

aminopeptidase M = target: T3, aminopeptidase M (Sus scrofa, UniProt P15145); experiment: Inhibition of aminopeptidase M (ATM); assay type: biochemical, porcine
T3 construct: from tissue; host or cells: porcine kidney
T3 sequence (P15145 1-963): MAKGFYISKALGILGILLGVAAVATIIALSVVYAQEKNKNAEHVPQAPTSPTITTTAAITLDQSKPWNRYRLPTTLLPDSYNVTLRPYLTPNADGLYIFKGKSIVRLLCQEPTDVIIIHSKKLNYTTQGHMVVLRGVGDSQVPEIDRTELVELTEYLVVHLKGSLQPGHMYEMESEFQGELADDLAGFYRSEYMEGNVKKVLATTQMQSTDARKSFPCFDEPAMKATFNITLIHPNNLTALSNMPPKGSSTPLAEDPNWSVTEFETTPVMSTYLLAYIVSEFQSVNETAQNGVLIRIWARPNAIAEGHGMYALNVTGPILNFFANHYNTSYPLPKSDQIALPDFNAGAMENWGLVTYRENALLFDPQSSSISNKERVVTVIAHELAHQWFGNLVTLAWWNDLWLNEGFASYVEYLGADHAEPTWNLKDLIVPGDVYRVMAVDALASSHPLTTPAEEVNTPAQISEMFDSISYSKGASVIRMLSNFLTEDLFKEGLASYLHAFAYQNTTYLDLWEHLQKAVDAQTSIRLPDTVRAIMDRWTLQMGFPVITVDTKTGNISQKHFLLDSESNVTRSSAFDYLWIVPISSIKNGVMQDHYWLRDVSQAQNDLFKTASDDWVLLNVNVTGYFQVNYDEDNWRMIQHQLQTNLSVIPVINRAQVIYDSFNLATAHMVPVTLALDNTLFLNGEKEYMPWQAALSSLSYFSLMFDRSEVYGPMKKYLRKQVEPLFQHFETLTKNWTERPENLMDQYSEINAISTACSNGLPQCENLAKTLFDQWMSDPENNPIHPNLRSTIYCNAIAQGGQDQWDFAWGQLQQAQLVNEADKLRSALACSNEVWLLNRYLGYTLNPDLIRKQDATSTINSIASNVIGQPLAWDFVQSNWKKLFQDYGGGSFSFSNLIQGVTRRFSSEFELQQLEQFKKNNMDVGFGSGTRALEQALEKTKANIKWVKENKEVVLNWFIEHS
Description: as §1, §2
aminopeptidase M; CTG, cathespin G; CTD, cathespin D; PPE, porcine
Enzyme: Purified aminopeptidase M from porcine kidney
Reaction Mixture: 50 mM Tricine buffer (pH 7.5), 500 mM NaCl, 10% DMSO, 2.0 mM Substrate.
as §3, §4

[1] = aminopeptidase M, pH 7.5, 10 minute preincubation, 22° C., read-out: IC50 ATM

T2 sequence (P00747 581-810 limits assumed): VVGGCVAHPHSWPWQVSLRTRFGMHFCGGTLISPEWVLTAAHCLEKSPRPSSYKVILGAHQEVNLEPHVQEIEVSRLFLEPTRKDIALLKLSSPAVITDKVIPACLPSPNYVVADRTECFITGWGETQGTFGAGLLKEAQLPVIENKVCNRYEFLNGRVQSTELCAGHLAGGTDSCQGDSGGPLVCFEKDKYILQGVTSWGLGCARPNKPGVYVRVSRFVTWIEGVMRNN
T2 sequence (P00747 97-580 partner limits assumed): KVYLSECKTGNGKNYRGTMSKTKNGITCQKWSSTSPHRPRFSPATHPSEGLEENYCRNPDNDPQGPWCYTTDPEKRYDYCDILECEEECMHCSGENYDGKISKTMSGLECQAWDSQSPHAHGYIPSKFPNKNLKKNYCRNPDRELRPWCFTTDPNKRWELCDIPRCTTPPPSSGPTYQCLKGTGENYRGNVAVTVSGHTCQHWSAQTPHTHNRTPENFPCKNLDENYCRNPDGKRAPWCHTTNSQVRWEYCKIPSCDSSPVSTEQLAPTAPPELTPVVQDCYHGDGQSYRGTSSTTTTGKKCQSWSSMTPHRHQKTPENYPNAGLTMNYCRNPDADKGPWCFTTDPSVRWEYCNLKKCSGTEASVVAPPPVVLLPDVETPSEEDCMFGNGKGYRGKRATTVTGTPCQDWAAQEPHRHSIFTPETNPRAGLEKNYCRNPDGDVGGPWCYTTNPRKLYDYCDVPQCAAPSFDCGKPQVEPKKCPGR

Row | IC50 (thrombin) [µM] | IC50 (plasmin) [µM] | IC50 (aminopeptidase M; [1]) [µM] | IC50 (aminopeptidase M) [µM] | Compound
1 | > 40 | 3.61 | > 60 |  | CC1=C(C(=O)OC(c2ccccc2)c2ccccc2)N2C(=O)[C@H](Cl)[C@H]2S(=O)(=O)C12CC2(c1ccccc1)c1ccccc1 (single isomer, unassigned) [Example 1, Benzhydryl 7α-chloro-2-spiro(2',2'-diphenyl) cyclopropyl-3-methyl-3-cephem-4-carboxylate-1,1-dioxide]
2 | > 40 | 3.21 | > 40 |  | CC1=C(C(=O)OC(c2ccccc2)c2ccccc2)N2C(=O)[C@H](Br)[C@H]2S(=O)(=O)C12CC2(c1ccccc1)c1ccccc1 (single isomer, unassigned) [Example 2, benzhydryl 7α-bromo-2-spiro(2', 2'-diphenyl) cyclopropyl-3-methyl-3-cephem-4-carboxylate-1,1-dioxide]
3 | > 55.3 | 2.21 |  | > 55.3 | CC1=C(C(=O)OC(c2ccccc2)c2ccccc2)N2C(=O)[C@H](Br)[C@H]2S(=O)(=O)C12CC2(c1ccc(Cl)cc1)c1ccc(Cl)cc1 (single isomer, unassigned) [Example 12, Benzhydryl 7α-bromo-2-spiro [2',2'-(4',4'-dichloro)diphenyl]cyclopropyl-3-methyl-3-cephem-4-carboxylate-1,1-dioxide]
4 | > 40 | 3.19 |  | > 40 | CC1=C(C(=O)OC(c2ccccc2)c2ccccc2)N2C(=O)[C@H](Br)[C@H]2S(=O)(=O)C12CC2(c1ccc(F)cc1)c1ccc(F)cc1 (single isomer, unassigned) [Example 13, Benzhydryl 7α-bromo-2-spiro[2',2'-(4',4'-difluoro)diphenyl] cyclopropyl-3-methyl-3-cephem-4-carboxylate-1,1-dioxide]
5 | > 41.9 | 5.51 | > 40 |  | CC1=C(C(=O)OC(C)(C)C)N2C(=O)[C@H](Br)[C@H]2S(=O)(=O)C12CC2(c1ccccc1)c1ccccc1 (stereo partly drawn) [Example 3, t-Butyl 7α-bromo-2-spiro(2',2'-diphenyl) cyclopropyl-3-methyl-3-cephem 4-carboxylate-1,1-dioxide]
6 | > 39 | > 39 | > 9.77 |  | CC1=C(C(=O)N2CCCC2)N2C(=O)[C@H](Br)[C@H]2S(=O)(=O)C12CC2(c1ccccc1)c1ccccc1 (stereo partly drawn) [Example 6, 7α Bromo-2-spiro(2',2'-diphenyl)cyclopropyl-3-methyl-3-cephem-4-pyrrolidine carboxamide-1,1-dioxide]
7 | > 10 | > 10 | > 10 |  | CCO[C@H]1C(=O)N2C(C(=O)OCC(Cl)(Cl)Cl)=C(C)C3(CC3(c3ccccc3)c3ccccc3)S(=O)(=O)[C@H]12 (stereo partly drawn) [Example 7, 2,2,2-Trichloroethyl-7α-ethoxy-2-spiro(2',2'-diphenyl)cyclo-propyl-3-methyl-3-cephem-4-carboxylate-1,1-dioxide]
8 | > 9.98 | 1.3 |  | > 9.98 | CO[C@H]1C(=O)N2C(C(=O)OCC(Cl)(Cl)Cl)=C(C)C3(CC3(c3ccccc3)c3ccccc3)S(=O)(=O)[C@H]12 (stereo partly drawn) [Example 8, 2,2,2-Trichloroethyl-7α-methoxy-2-spiro(2',2'-diphenyl) cyclopropyl-3-methyl-3-cephem-4-carboxylate-1,1-dioxide]
9 | > 10 | 8.8 |  | > 10 | CO[C@H]1C(=O)N2C(C(=O)OC(c3ccccc3)c3ccccc3)=C(C)C3(CC3(c3ccccc3)c3ccccc3)S(=O)(=O)[C@H]12 (stereo partly drawn) [Example 9, Benzhydryl 7α-methoxy-2-spiro (2',2'-diphenyl) cyclopropyl-3-methyl-3-cephem-4-carboxylate-1,1-dioxide]
10 | > 40 | > 40 |  | > 40 | CO[C@H]1C(=O)N2C(C(=O)N3CCCC3)=C(C)C3(CC3(c3ccccc3)c3ccccc3)S(=O)(=O)[C@H]12 (stereo partly drawn) [Example 10, 7α-Methoxy-2-spiro (2',2'-diphenyl)cyclopropyl-3-methyl-3-cephem-4-pyrrolidine carboxamide-1,1-dioxide]
11 | > 40 | 11 |  | > 40 | CCOC(=O)C1CC12C(C)=C(C(=O)OC(c1ccccc1)c1ccccc1)N1C(=O)[C@H](Br)[C@H]1S2(=O)=O (stereo partly drawn) [Example 13 (1), Benzhydryl 7α-bromo-2-spiro(2'-ethoxycarbonyl)cyclopropyl-3-methyl-3-cephem-4-carboxylate-1,1-dioxide]
12 | > 40 | 5.5 |  | > 40 | CC1=C(C(=O)OC(c2ccccc2)c2ccccc2)N2C(=O)[C@H](Br)[C@H]2S(=O)(=O)C12CC2(C)c1ccccc1 (stereo partly drawn) [Example 13 (2), Benzhydryl 7α-bromo-2-spiro(2'-phenyl-2'-methyl) cyclopropyl-3-methyl-3-cephem-4-carboxylate-1,1-dioxide]
